Assay results as given in patent US10512691B2, “Systems and methods for targeted imaging and ablation of cardiac cells” (THE REGENTS OF THE UNIVERSITY OF MICHIGAN, priority 2012, dated 2019).
Read-outs that look alike come from different tables or passages of the source. Peptide text beside a SMILES is read from it.

How the values were obtained:
[1] = known, when injected in blood; cited from earlier work
cardiac tissue [2] = details: contemplated, citing Zahid et al.; cited from earlier work
cardiac tissue [3] = assay: CTP transduction of cardiac tissue after peripheral intravenous injection; format: in vivo; details: 15 minutes post-peripheral intravenous injection in mice
Description: In some embodiments, nanoparticles comprise cardiac targeting moieties. In some embodiments, targeting moieties target myocytes. In some embodiments, the cardiac targeting moiety is cardiac targeting peptide (CTP) (Zahid et al., PloS one 2010; 5:e12252, herein incorporated by reference in its entirety). This peptide has the sequence […] (SEQ ID NO:1). In some embodiments, variants (e.g., sequence variants) of cardiac targeting peptide that retain the ability to specifically bind to myocytes are utilized. […] Thus, CTP is specific to the heart and cell type specific to myocytes. CTP also works in rat, and sheep and human (Zahid, et. al, supra).

[4] = In vivo blood stability of photosensitizer; details: action of blood reducing enzymes
Description: In vivo testing as described above was repeated with an improved CTP-Ce6-8-arm-PEG platform as described above.

Compound: chlorin e6 [Ce6]
- stability in blood in vivo [1]: remain stable when injected in blood

Compound: CC(C)C[C@H](NC(=O)[C@H](Cc1c[nH]cn1)NC(=O)[C@H](Cc1c[nH]c2ccccc12)NC(=O)[C@@H]1CCCN1C(=O)[C@H](C)N)C(=O)N[C@@H](CO)C(=O)N[C@@H](CO)C(=O)N[C@@H](CCC(N)=O)C(=O)N[C@@H](Cc1ccc(O)cc1)C(=O)N[C@@H](CO)C(=O)N[C@@H](CCCNC(=N)N)C(=O)N[C@H](C(=O)O)[C@@H](C)O [CTP] (H-APWHLSSQYSRT-OH; N-terminus and C-terminus assumed)
- time for CTP to reach the heart (cardiac tissue [2]): approximately 15 minutes
- transduction of cardiac tissue (cardiac tissue [3]): efficiently and specifically transduce cardiac tissue
- uptake in other organs (cardiac tissue [3]): No other organ showed uptake except kidney glomeruli, limited to the cortex, and rare lung capillaries

Compound: CN(C)c1ccc2nc3ccc(=[N+](C)C)cc-3sc2c1 [methylene blue]
- stability in blood in vivo [4]: decreased in vivo
